Source: patent publication US5036008A, “Antitumor antibiotic BU-3285T” (Bristol-Myers Company, priority 1990, dated 1991)
In brackets after ≈: the same amount, converted by molar mass. Entries after “also recorded” stand apart in the source; their conditions may differ.

What was measured:
[1] = test system: Moser (human colorectal carcinoma) cells; test: In vitro cytotoxicity (Table 6)
Method: (§1) BU-3285T was tested for in vitro cytotoxicity against several murine and human tumor cell lines and for in vivo antitumor activity in mice. Mitomycin C was used as a reference compound in both in vitro and in vivo experiments. B16-F10 (murine melanoma) and Moser (human colorectal carcinoma) cells were grown to the logarithmic phase in an enriched Eagle minimum essential medium supplemented with fetal calf serum (FCS, 10%) and kanamycin (60 μg/ml); HCT-116 (human colon carcinoma) cells were in McCoy's 5A medium supplemented with FCS (10%), penicillin (100 U/ml) and streptomycin (100 μg/ml); and P388 (murine lymphocytic leukemia) cells and its vincristine-resistant subline (P388/VCR) were in RPMI 1640 medium supplemented with FCS (10%), penicillin (100 U/ml) and streptomycin (100 μg/ml).
(§2) B16-F10, Moser, HCT-116 and P388 cells were harvested and implanted into wells of a 96-well (for B16-F10, Moser and HCT-116 cells) or a 24-well (for P388 cells) tissue culture plate with test materials at the inoculum sizes of 3×10^4, 6 ×10^4, 6×10^4 and 2×10^4 cells/ml, respectively. They were incubated at 37° C. in a humidified atmosphere of 5% CO2 and 95% air for 72 hrs. […] For P388 cells, the number of viable cells was determined by a Coulter counter.

[2] = test system: P388/VCR (vincristine-resistant subline of P388) cells; test: In vitro cytotoxicity (Table 6)
Method: as §1, §2

[3] = test system: Sporothrix schenckii IF08158; test: microbe, parasite or virus in culture; details: IF08158, 40 h, pH 7
Method: (§4) In vitro antifungal activity was determined against various fungi by the serial agar dilution method. Sabouraud dextrose agar (pH 7.0) was used for the experiment. The inoculum size was adjusted to 10^6 CFU/ml. After incubation at 28° C. for 40 hours, the minimum inhibitory concentration (MIC) was examined.

Mucor spinosus IF05317 = test: In vitro antifungal activity, serial agar dilution; details: IF05317, 40 h, pH 7
Method: as §4

[4] = test system: RNA biosynthesis in L1210 leukemia cells; test: Inhibition of macromolecule biosynthesis, RNA (Table 7); assay type: cell-based, murine; details: Mus musculus, labelled precursor, 15 min + 60 min, 37° C., read-out: IC50, RNA synthesis
Method: (§3) Inhibitory effects of BU-3285T on macromolecule biosynthesis (DNA, RNA and protein) were determined in cultured L1210 murine leukemia cells. The cells (5×10^5 cells/ml) were incubated with the compound at 37° C. for 15 minutes and then further incubated for 60 minutes after the addition of labelled precursor, ^3 H-thymidine, ^14 C-uridine or ^3 H-leucine into the cultured mixture. After washing with chilled 5% trichloroacetic acid solution, the radioactivity incorporated into the acid-insoluble fraction of the cells was determined by a liquid scintillation counter.

C. albicans A9540 = test: In vitro antifungal activity, serial agar dilution; details: Candida albicans, A9540, 40 h, pH 7
Method: as §4

[5] = test system: Trichophyton mentagrophytes D155; test: In vitro antifungal activity, serial agar dilution; details: D155, 40 h, pH 7
Method: as §4

[6] = test system: Cryptococcus neoformans D49; test: In vitro antifungal activity, serial agar dilution; details: D49, 40 h, pH 7
Method: as §4

L1210 leukemia = test: In vivo antitumor activity against L1210 leukemia (Table 9); details: for Body wt. change on day 6 / MST (median survival time) / T/C: Q1D × 3
[7] = test system: Petriellidium boydii IF08078; test: In vitro antifungal activity, serial agar dilution; details: Scedosporium boydii, IF08078, 40 h, pH 7
Method: as §4

Piricularia oryzae D91 = test: microbe, parasite or virus in culture; assay type: cell-based; details: 40 h, pH 7
B16 melanoma = test: In vivo antitumor activity against B16 melanoma (Table 10)
Method: Female CDF1 mice were intraperitoneally inoculated with 0.4 ml of diluted ascitic fluid containing 10^6 lymphocytic leukemia P388 cells or 10^5 lymphoid leukemia L1210 cells and male BDF1 mice were intraperitoneally inoculated with 0.5 ml of 10% melanotic melanoma B16 brei.

Candida albicans IAM4888 = test: In vitro antifungal activity, serial agar dilution; details: IAM4888, 40 h, pH 7
Method: as §4

[8] = test system: protein biosynthesis in L1210 leukemia cells; test: Inhibition of macromolecule biosynthesis, protein (Table 7); assay type: cell-based, murine
Method: as §3

[9] = test system: A549/VP29 (etoposide-resistant subline of A549) cells; test: In vitro cytotoxicity (Table 14); details: A549/VP29, 72 hours, neutral red
Method: After planting 180 μl of cell suspension into wells of a 96-well microtiter plate on day 0, the test materials (20 μl) were added on day 1 and the plates were incubated for 72 hours. The cytotoxic activity was colorimetrically determined at 540 nm after staining viable cells with neutral red solution.

[10] = test system: Blastomyces dermatidis D40; test: In vitro antifungal activity, serial agar dilution; details: D40, 40 h, pH 7
Method: as §4

T. mentagrophytes #4329 = test: In vitro antifungal activity, serial agar dilution; details: Trichophyton mentagrophytes, 40 h, pH 7
Method: as §4

[11] = test system: HCT-116 (human colon carcinoma) cells; test: In vitro cytotoxicity (Table 6); assay type: cell-based; details: HCT-116, 72 hrs, neutral red
Method: as §1, §2

[12] = test system: B16-F10 (murine melanoma) cells; test: In vitro cytotoxicity (Table 6); assay type: cell-based; details: Mus musculus; B16-F10, 72 hrs, neutral red
Method: as §1, §2

[13] = test system: P388 (murine lymphocytic leukemia) cells; test: In vitro cytotoxicity (Table 6); assay type: cell-based; details: Mus musculus; P388, 72 hrs, Coulter counter
Method: as §1, §2

C. neoformans IAM4514 = test: In vitro antifungal activity, serial agar dilution; details: Cryptococcus neoformans, IAM4514, 40 h, pH 7
Method: as §4

[14] = test system: Aspergillus fumigatus IAM2530; test: In vitro antifungal activity, serial agar dilution; details: IAM2530, 40 h, pH 7
Method: as §4

[15] = test system: Fusarium moniliforme A2284; test: In vitro antifungal activity, serial agar dilution; details: Fusarium verticillioides, A2284, 40 h, pH 7
Method: as §4

`CCCCC/C=C/C=C\C=C/C(O)C(C)C(C/C=C/C1OC(=O)C=CC1O)OS(=O)(=O)O` (centres unmarked) [BU-3285T] was tested, and the IC50 ([1]; Homo sapiens, 72 h) was 0.85 µg/mL (≈ 1.81 µM), the “cytotoxic activity, comparison among cell lines” value ([1]; among B16-F10, HCT-116 and Moser) was “most potent cytotoxic activity against Moser cells” and the IC50 ([2]; Mus musculus, P388/VCR, 72 h) was 4.4 µg/mL (≈ 9.35 µM). The “cytotoxicity against P388/VCR compared with parent cells” value ([2]; vs P388 parent) was “almost the same cytotoxicity”, the MIC [3] was 100 µg/mL (≈ 213 µM) and the MIC (Mucor spinosus IF05317) was 25 µg/mL (≈ 53.1 µM). The IC50 [4] was 14.4 µg/mL, the MIC (C. albicans A9540) was 25 µg/mL (≈ 53.1 µM) and the MIC [5] was 25 µg/mL (≈ 53.1 µM). The MIC [6] was 1.6 µg/mL (≈ 3.4 µM), the “Body wt. change on day 6” value (L1210 leukemia; 0.1 mg/kg/day ip) was “+2.3 g” and the “MST (median survival time)” value (L1210 leukemia; 0.1 mg/kg/day ip) was 8.0 days. The T/C (L1210 leukemia; 0.1 mg/kg/day ip, significant if T/C ≥ 125%) was 114%, the “Body wt. change on day 6” value (L1210 leukemia; 0.3 mg/kg/day ip) was “+2.5 g” and the “MST (median survival time)” value (L1210 leukemia; 0.3 mg/kg/day ip) was 8.0 days. For the same molecule, the T/C (L1210 leukemia; 0.3 mg/kg/day ip, *2 significant, T/C ≥ 125%) was 114%, the “Body wt. change on day 6” value (L1210 leukemia; 1 mg/kg/day ip) was “+1.5 g” and the “MST (median survival time)” value (L1210 leukemia; 1 mg/kg/day ip) was 9.0 days. For the same molecule, the T/C (L1210 leukemia; 1 mg/kg/day ip, *2 significant, T/C ≥ 125%) was 129%, the “Body wt. change on day 6” value (L1210 leukemia; 3 mg/kg/day ip) was “+1.5 g” and the “MST (median survival time)” value (L1210 leukemia; 3 mg/kg/day ip) was 9.0 days. The T/C (L1210 leukemia; 3 mg/kg/day ip, *2 significant, T/C ≥ 125%) was 129%, the “Body wt. change on day 6” value (L1210 leukemia; 10 mg/kg/day ip) was 0.0 g and the “MST (median survival time)” value (L1210 leukemia; 10 mg/kg/day ip) was 10.5 days. The T/C (L1210 leukemia; 10 mg/kg/day ip, *2 significant, T/C ≥ 125%) was 150%, the “activity compared with mitomycin C” value (L1210 leukemia; L1210, in terms of minimum effective dose) was “somewhat weaker” and the “in vivo antitumor activity” value (L1210 leukemia; L1210 leukemia in mice) was “potent in vivo inhibitory activity; also recorded: good antitumor activity”. For the same molecule, the MIC [7] was 0.8 µg/mL (≈ 1.7 µM), the MIC (Piricularia oryzae D91) was 50 µg/mL (≈ 106 µM) and the “activity compared with mitomycin C” value (B16 melanoma; B16, in terms of minimum effective dose) was “somewhat weaker”. The “in vivo antitumor activity” value (B16 melanoma; B16 melanoma in mice) was “potent in vivo inhibitory activity; also recorded: good antitumor activity”, the MIC (Candida albicans IAM4888) was 25 µg/mL (≈ 53.1 µM) and the “inhibition of protein synthesis (specificity)” value ([8]; L-1210 leukemia cells) was “specific inhibitor of protein synthesis”. The IC50 ([8]; Mus musculus, L1210, labelled precursor, 15 min + 60 min, 37° C., read-out: IC50, protein synthesis) was 0.78 µg/mL, the “inhibition of protein synthesis stronger than RNA synthesis” value ([8]; protein vs RNA synthesis, L1210 cells) was 18 times and the IC50 [9] was 17 µg/mL (≈ 36.1 µM). For the same molecule, the MIC [10] was 12.5 µg/mL (≈ 26.6 µM), the MIC (T. mentagrophytes #4329) was 12.5 µg/mL (≈ 26.6 µM) and the IC50 [11] was 3.4 µg/mL (≈ 7.23 µM). The IC50 [12] was 13.3 µg/mL (≈ 28.3 µM), the IC50 [13] was 3.8 µg/mL (≈ 8.08 µM) and the MIC (C. neoformans IAM4514) was 1.6 µg/mL (≈ 3.4 µM). The MIC [14] was 25 µg/mL (≈ 53.1 µM) and the MIC [15] was 25 µg/mL (≈ 53.1 µM).
